ChEMBL document CHEMBL1201862, “PubChem BioAssay data set” (2004)
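Following 48 hours of exposure in 96-well plates, responses at five concentrations were used to interpolate endpoints linearly. GI50 marks 50% less growth.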 The source made the active and inactive calls. Cut-off read from the data, not from the text of the source: active = GI50 up to about 1.1 µM and inactive = higher.

What was measured:
Assay in all cases: growth of human tumour cells (NCI), 48 h
A549 = system: A549
BT-549 = system: BT-549
COLO 205 = system: COLO 205
HCC 2998 = system: HCC 2998
IGROV-1 = system: IGROV-1
M14 = system: M14
MDA-MB-435 = system: MDA-MB-435
Malme-3M = system: Malme-3M
OVCAR-4 = system: OVCAR-4
PC-3 = system: PC-3
RPMI-8226 = system: RPMI-8226
SF-295 = system: SF-295
SK-MEL-5 = system: SK-MEL-5
SNB-19 = system: SNB-19
T47D = system: T47D
U-251 = system: U-251
UACC-257 = system: UACC-257
ACHN = system: ACHN
HL-60 = system: HL-60
Hs-578T = system: Hs-578T

Compound | GI50 (A549) | GI50 (BT-549) | GI50 (COLO 205) | GI50 (HCC 2998) | GI50 (IGROV-1) | GI50 (M14) | GI50 (MDA-MB-435) | GI50 (Malme-3M) | GI50 (OVCAR-4) | GI50 (PC-3) | GI50 (RPMI-8226) | GI50 (SF-295) | GI50 (SK-MEL-5) | GI50 (SNB-19) | GI50 (T47D) | GI50 (U-251) | GI50 (UACC-257) | GI50 (ACHN) | GI50 (HL-60) | GI50 (Hs-578T)
NC(=O)OCc1c(-c2ccccc2)nn(-c2ccccc2)c1COC(N)=O | > 100 µM (inactive) | > 100 µM (inactive) | > 100 µM (inactive) | > 100 µM (inactive) | > 10 µM (inactive) | > 100 µM (inactive) | > 100 µM (inactive) | > 100 µM (inactive) | > 100 µM (inactive) | > 100 µM (inactive) | > 100 µM (inactive) | > 100 µM (inactive) | > 100 µM (inactive) | > 100 µM (inactive) | > 100 µM (inactive) | > 100 µM (inactive) | > 100 µM (inactive) | – | – | –
CC(SC(=S)N1CCOCC1)C(=O)Nc1nnc(-c2ccccc2)o1 (centres undefined) | 70 µM (inactive) | > 100 µM (inactive) | > 100 µM (inactive) | – | 99.1 µM (inactive) | > 100 µM (inactive) | > 100 µM (inactive) | > 100 µM (inactive) | > 100 µM (inactive) | 57.1 µM (inactive) | 43.1 µM (inactive) | 88.5 µM (inactive) | 46.7 µM (inactive) | > 100 µM (inactive) | 91.6 µM (inactive) | > 100 µM (inactive) | > 100 µM (inactive) | 97.7 µM (inactive) | 5.05 µM (inactive) | > 100 µM (inactive)
O=C(c1ccccc1)N(CCCCNC(=O)C(F)(F)F)CCCNC(=O)C(F)(F)F | > 100 µM (inactive) | > 100 µM (inactive) | > 100 µM (inactive) | > 100 µM (inactive) | > 100 µM (inactive) | > 100 µM (inactive) | > 100 µM (inactive) | > 100 µM (inactive) | > 100 µM (inactive) | – | > 100 µM (inactive) | > 100 µM (inactive) | > 100 µM (inactive) | > 100 µM (inactive) | > 100 µM (inactive) | > 100 µM (inactive) | > 100 µM (inactive) | > 100 µM (inactive) | > 100 µM (inactive) | > 100 µM (inactive)
Nc1cc2nc(-c3ccccc3)cn2cn1 | > 100 µM (inactive) | > 100 µM (inactive) | > 100 µM (inactive) | – | – | > 100 µM (inactive) | > 100 µM (inactive) | 20.2 µM (inactive) | > 100 µM (inactive) | 50 µM (inactive) | 65 µM (inactive) | > 100 µM (inactive) | 35.5 µM (inactive) | > 100 µM (inactive) | > 100 µM (inactive) | > 100 µM (inactive) | – | > 100 µM (inactive) | > 100 µM (inactive) | –
CCCCS(=O)(=O)CCC(N)P(=O)(O)O (centres undefined) | > 100 µM (inactive) | > 100 µM (inactive) | > 100 µM (inactive) | – | > 100 µM (inactive) | > 100 µM (inactive) | > 100 µM (inactive) | > 100 µM (inactive) | > 100 µM (inactive) | > 100 µM (inactive) | > 100 µM (inactive) | > 100 µM (inactive) | > 100 µM (inactive) | > 100 µM (inactive) | > 100 µM (inactive) | > 100 µM (inactive) | > 100 µM (inactive) | > 100 µM (inactive) | > 100 µM (inactive) | > 100 µM (inactive)
COC12C=CC(CC1)C1C(=O)c3c(C)c(C)n(C)c3C(=O)C12 (centres undefined) | – | > 100 µM (inactive) | > 100 µM (inactive) | – | 73.5 µM (inactive) | > 100 µM (inactive) | 83.2 µM (inactive) | > 100 µM (inactive) | – | > 100 µM (inactive) | 85.1 µM (inactive) | > 100 µM (inactive) | 19.6 µM (inactive) | > 100 µM (inactive) | > 100 µM (inactive) | > 100 µM (inactive) | 35.6 µM (inactive) | 90.6 µM (inactive) | – | 70.3 µM (inactive)
CCC(=O)/C(=C\I)c1ccccc1 | 20.9 µM (inactive) | 1.79 µM (inactive) | 2.05 µM (inactive) | – | 1.97 µM (inactive) | 2.28 µM (inactive) | 3.36 µM (inactive) | 1.67 µM (inactive) | – | 3.01 µM (inactive) | 3.33 µM (inactive) | 18.5 µM (inactive) | – | 15.3 µM (inactive) | 1.68 µM (inactive) | 2.23 µM (inactive) | 3.55 µM (inactive) | – | 0.995 µM (active) | 5.2 µM (inactive)
CCOC(=O)CNC(=O)CNC(=O)CNC(=O)CNNc1c(OCc2ccccc2)c(=O)c1=O | > 100 µM (inactive) | > 100 µM (inactive) | > 100 µM (inactive) | > 100 µM (inactive) | > 100 µM (inactive) | > 100 µM (inactive) | > 100 µM (inactive) | > 100 µM (inactive) | > 100 µM (inactive) | > 100 µM (inactive) | > 100 µM (inactive) | – | > 100 µM (inactive) | > 100 µM (inactive) | > 100 µM (inactive) | > 100 µM (inactive) | > 100 µM (inactive) | > 100 µM (inactive) | – | > 100 µM (inactive)
COC(=O)C1(C(=O)OC)N=C(C)OC1c1ccoc1 (centres undefined) | > 100 µM (inactive) | > 100 µM (inactive) | > 100 µM (inactive) | > 100 µM (inactive) | – | > 100 µM (inactive) | > 100 µM (inactive) | – | > 100 µM (inactive) | > 100 µM (inactive) | > 100 µM (inactive) | > 100 µM (inactive) | > 100 µM (inactive) | > 100 µM (inactive) | > 100 µM (inactive) | > 100 µM (inactive) | > 100 µM (inactive) | > 100 µM (inactive) | > 100 µM (inactive) | –
COc1ccc(/N=C2\C(=N/c3ccc(OC)cc3)N(S(=O)(=O)c3ccccc3)C(=S)N2c2ccccc2)cc1 | > 100 µM (inactive) | > 100 µM (inactive) | > 100 µM (inactive) | > 100 µM (inactive) | > 100 µM (inactive) | > 100 µM (inactive) | > 100 µM (inactive) | > 100 µM (inactive) | – | > 100 µM (inactive) | > 100 µM (inactive) | > 100 µM (inactive) | > 100 µM (inactive) | > 100 µM (inactive) | > 100 µM (inactive) | > 100 µM (inactive) | > 100 µM (inactive) | > 100 µM (inactive) | – | > 100 µM (inactive)
CC1=C(C(=O)OC23CC4CC(CC(C4)C2)C3)C(c2ccccc2OC(F)F)C(C(=O)OC23CC4CC(CC(C4)C2)C3)=C(C)N1 (centres undefined) | > 100 µM (inactive) | > 100 µM (inactive) | > 100 µM (inactive) | > 100 µM (inactive) | > 100 µM (inactive) | > 100 µM (inactive) | > 100 µM (inactive) | > 100 µM (inactive) | > 100 µM (inactive) | – | > 100 µM (inactive) | > 100 µM (inactive) | > 100 µM (inactive) | > 100 µM (inactive) | > 100 µM (inactive) | > 100 µM (inactive) | > 100 µM (inactive) | – | > 100 µM (inactive) | 68.2 µM (inactive)
N#Cc1nn(C(N)=O)c(N)c1C#N | > 100 µM (inactive) | > 100 µM (inactive) | > 100 µM (inactive) | > 100 µM (inactive) | > 100 µM (inactive) | > 100 µM (inactive) | – | – | > 100 µM (inactive) | > 100 µM (inactive) | – | > 100 µM (inactive) | > 100 µM (inactive) | > 100 µM (inactive) | > 100 µM (inactive) | > 100 µM (inactive) | > 100 µM (inactive) | > 100 µM (inactive) | > 100 µM (inactive) | > 100 µM (inactive)
COc1nc(=O)n(C2CC(F)C(CO)O2)cc1C (centres undefined) | > 100 µM (inactive) | > 100 µM (inactive) | > 100 µM (inactive) | > 100 µM (inactive) | > 100 µM (inactive) | > 100 µM (inactive) | > 100 µM (inactive) | > 100 µM (inactive) | > 100 µM (inactive) | – | > 100 µM (inactive) | > 100 µM (inactive) | > 100 µM (inactive) | > 100 µM (inactive) | > 100 µM (inactive) | > 100 µM (inactive) | > 100 µM (inactive) | > 100 µM (inactive) | > 100 µM (inactive) | > 100 µM (inactive)
CN(C)c1ccccc1CN1CCCN(Cc2ccccc2N(C)C)C1c1ccncc1 | 17.4 µM (inactive) | 16.9 µM (inactive) | 14.9 µM (inactive) | – | 14.9 µM (inactive) | 2.33 µM (inactive) | 6.28 µM (inactive) | 10.4 µM (inactive) | 15 µM (inactive) | 17.9 µM (inactive) | 5.75 µM (inactive) | 15.3 µM (inactive) | 5.36 µM (inactive) | 12.9 µM (inactive) | 17.7 µM (inactive) | 23 µM (inactive) | 2.42 µM (inactive) | 24.8 µM (inactive) | 13 µM (inactive) | 17.7 µM (inactive)
CSC(=S)N(C)C [CYSTOGON] | > 100 µM (inactive) | > 100 µM (inactive) | > 100 µM (inactive) | – | > 100 µM (inactive) | > 100 µM (inactive) | > 100 µM (inactive) | > 100 µM (inactive) | – | – | > 100 µM (inactive) | > 100 µM (inactive) | > 100 µM (inactive) | > 100 µM (inactive) | > 100 µM (inactive) | > 100 µM (inactive) | > 100 µM (inactive) | – | > 100 µM (inactive) | > 100 µM (inactive)
